Experimental data reported in EP0891991A2, “Tris(pentafluorophenyl)borate complexes and catalysts derived therefrom” (MINNESOTA MINING AND MANUFACTURING COMPANY, priority 1995, dated 1996).

Assay: Stability of tris(pentafluorophenyl)borane hydrates
Type: physicochemical
Details: in solution or in the solid state
Description: Of the class of compounds of the type (C6F5)3B-(YXH)q, when Y is hydrogen, X is oxygen, and q is 1 or 3, the complex with water is a special case. Exposure of anhydrous (C6F5)3B to water vapor, produces (C6F5)3B·3H2O, a white, stable solid. No intermediate hydrate was detected by infrared spectroscopic analysis. […] Formation of a trihydrate was unexpected because all other previously known (C6F5)3B complexes with Lewis bases have a 1:1 stoichiometry. Vacuum sublimation of the trihydrate produced a mixture of the monohydrate and (C6F5)3B. The pure monohydrate, (C6F5)3B·H2O, however may be obtained by combining in organic solvents, such as toluene or chloroform, one equivalent of (C6F5)3B·3H2O with two equivalents of (C6F5)3B followed by evaporation of the solvent. This conproportionation reaction is a convenient way of synthesizing the monohydrate as needed. […] The monohydrate may also be prepared by combining one mole each of water and (C6F5)3B.

stability: unstable and slowly decomposes
Structure (SMILES): Fc1c(F)c(F)c(B(c2c(F)c(F)c(F)c(F)c2F)c2c(F)c(F)c(F)c(F)c2F)c(F)c1F.O [Example 2]
